Data published in patent US20240050422A1, “DRUG DELIVERY VIA MONOACYLGLYCEROL AND FREE FATTY ACID-BASED COMPOSITIONS” (GLYCOSBIO, INC., priority 2021, published 2024).
Like-named read-outs stand apart in the source and are kept apart here.

Key:
[1] = cited from earlier work
[2] = at 3 hours; 0.5 mg/mL
Experimental: Approximately 1 mL of bupivacaine solution (0.5 mg/mL in water) or bupivacaine nanoemulsion (0.5 mg/mL in nS100) were added to the donor chamber. At each time point, 70 μL was removed from the receiver chamber and replaced with an equivalent volume of fresh PBS to maintain constant volume. The aliquot from each time point was analyzed by HPLC to determine amount of drug permeating through the membrane over time. The HPLC system consisted of an LC-20AD pump, SIL-20AC HT autosampler, CTO-20A column oven, and SPD-20A UV/vis detector (Shimadzu Scientific Instruments, Inc.). HPLC conditions were: 30 μL injection volume, isocratic elution of mobile phase consisting of 75% methanol and 25% 10 mM sodium phosphate buffer (pH 7.8), flow rate of 1.000 mL/min, column temperature of 40° C., and detection at 263 nm.

[3] = over 7 hours; 1 mg/mL, pH 5-6
Experimental: At each time point, 80 μL was removed from the receiver chamber and replaced with an equivalent volume of fresh PBS to maintain constant volume. The aliquot from each time point was analyzed by HPLC to determine amount of drug permeating through the membrane over time. The HPLC system consisted of an LC-20AD pump, SIL-20AC HT autosampler, CTO-20A column oven, and SPD-20A UV/vis detector (Shimadzu Scientific Instruments, Inc.). HPLC conditions were: 30 μL injection volume, isocratic elution of mobile phase consisting of 50% methanol and 50% phosphoric acid (0.1%), flow rate of 1.000 mL/min, column temperature of 40° C., and detection at 275 nm.

[4] = over 24 hours; 10 mg/mL
Experimental: Sesame EMO nanoemulsion (nS50) was prepared from a combination of sesame EMO and FFA oil. Sesame EMO (0.852 g) and sesame FFA (0.648 g) were weighed into a 50 mL metal beaker and heated to 60° C. A coarse emulsion was prepared by adding 13.5 mL water (pre-heated to 60° C.) to the oil. The mixture was subjected to high-sheer homogenizer for 30 seconds, resulting in a milky coarse emulsion. The coarse emulsion was then transferred to QSonica Q700CA sonicator with ½ inch probe. The emulsion was processed for 2 cycles (5 minutes sonication/2 minutes cooling) at 90% power. […] At each time point, 70 μL was removed from the receiver chamber and replaced with an equivalent volume of fresh PBS to maintain constant volume. The aliquot from each time point was analyzed by HPLC to determine amount of drug permeating through the membrane over time. The HPLC system consisted of an LC-20AD pump, SIL-20AC HT autosampler, CTO-20A column oven, and SPD-20A UV/vis detector (Shimadzu Scientific Instruments, Inc.). HPLC conditions were: 30 μL injection volume, isocratic elution of mobile phase consisting of 60% methanol and 40% phosphoric acid (0.1%), flow rate of 1.000 mL/min, column temperature of 40° C., and detection at 210 nm.

[5] = 10 mg/mL
Experimental: Sesame EMO nanoemulsion (nS50) was prepared from a combination of sesame EMO and FFA oil. Sesame EMO (0.852 g) and sesame FFA (0.648 g) were weighed into a 50 mL metal beaker and heated to 60° C. A coarse emulsion was prepared by adding 13.5 mL water (pre-heated to 60° C.) to the oil. The mixture was subjected to high-sheer homogenizer for 30 seconds, resulting in a milky coarse emulsion. The coarse emulsion was then transferred to QSonica Q700CA sonicator with ½ inch probe. The emulsion was processed for 2 cycles (5 minutes sonication/2 minutes cooling) at 90% power. Approximately 1 mL of trifluoroacetyl tripeptide-2 (Cayman Chemical Company) solution (10 mg/mL in 10% DMSO in water) or trifluoroacetyl tripeptide-2 nanoemulsion (10 mg/mL in 10% DMSO in nS50) were added to the donor chamber. At each time point, 70 μL was removed from the receiver chamber and replaced with an equivalent volume of fresh PBS to maintain constant volume. The aliquot from each time point was analyzed by HPLC to determine amount of drug permeating through the membrane over time.

Compound: C=C(C)[C@@H]1CCC(C)=C[C@H]1c1c(O)cc(CCCCC)cc1O [CBD, cannabidiol]
- solubility in water [1]: essentially insoluble in water

Compound: CCCCN1CCCCC1C(=O)Nc1c(C)cccc1C (stereo not drawn) [free drug control (bupivacaine), bupivacaine]
- bupivacaine permeation [2]: undetectable permeation

Compound: O=C(O)c1ccccc1O [free drug control (salicylic acid), salicylic acid]
- salicylic acid permeation [3]: no salicylic acid permeation

Compound: hexapeptide-11 [free peptide control (hexapeptide-11)]
- hexapeptide-11 permeation [4]: no peptide permeation

Compound: trifluoroacetyl tripeptide-2
- trifluoroacetyl tripeptide-2 permeation ([5]; after 24 hours): 1.1 ug/cm^2
- trifluoroacetyl tripeptide-2 permeation ([5]; at 6 hours): no peptide permeation
